Columns and labels:
Format in all cases: in vivo
[1] = test system: giant foxtail (Setaria faberii); experiment: Test A preemergence; conditions: Setaria faberi, pre-emergence, 240 h; for pest or weed control at 125 g/ha: 125 g ai/ha, Preemergence, visual injury rating after approximately 10 d, read-out: Foxtail, Giant plant response rating (0 to 100 scale, 0 is no effect, 100 is complete control); for pest or weed control at 500 g/ha: 500 g ai/ha, preemergence, visual injury rating about 10 d after treatment, 0 to 100 scale (0 no effect, 100 complete control), read-out: Foxtail, Giant plant response rating
Procedure, shortened: (§1)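 Visual injury, scored on a 0–100 scale relative to untreated controls, was recorded about 10 d after application. Treatments were a preemergence soil spray over planted seeds or a postemergence spray on plants at the one- to two-leaf stage, 2 to 10 cm tall, all in loam soil–sand blend in the greenhouse.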

[2] = test system: ragweed (common ragweed, Ambrosia elatior); experiment: Test A preemergence; conditions: Ambrosia artemisiifolia, pre-emergence, 240 h; for pest or weed control at 125 g/ha: 125 g ai/ha, Preemergence, visual injury rating after approximately 10 d, read-out: Ragweed plant response rating (0 to 100 scale, 0 is no effect, 100 is complete control); for pest or weed control at 500 g/ha: 500 g ai/ha, preemergence, visual injury rating about 10 d after treatment, 0 to 100 scale (0 no effect, 100 complete control), read-out: Ragweed plant response rating
Procedure, shortened: as §1

[3] = test system: ryegrass, Italian (Italian ryegrass, Lolium multiflorum); experiment: Test A preemergence; conditions: Lolium multiflorum, pre-emergence, 240 h; for pest or weed control at 125 g/ha: 125 g ai/ha, Preemergence, visual injury rating after approximately 10 d, read-out: Ryegrass, Italian plant response rating (0 to 100 scale, 0 is no effect, 100 is complete control); for pest or weed control at 500 g/ha: 500 g ai/ha, preemergence, visual injury rating about 10 d after treatment, 0 to 100 scale (0 no effect, 100 complete control), read-out: Ryegrass, Italian plant response rating
Procedure, shortened: as §1

Kochia (Kochia scoparia) [4] = experiment: Test A preemergence; conditions: Bassia scoparia, pre-emergence, 240 h; for pest or weed control at 125 g/ha: 125 g ai/ha, Preemergence, visual injury rating after approximately 10 d, read-out: Kochia plant response rating (0 to 100 scale, 0 is no effect, 100 is complete control); for pest or weed control at 500 g/ha: 500 g ai/ha, preemergence, visual injury rating about 10 d after treatment, 0 to 100 scale (0 no effect, 100 complete control), read-out: Kochia plant response rating
Procedure, shortened: as §1

[5] = test system: pigweed (Amaranthus retroflexus); experiment: Test A preemergence; conditions: Amaranthus retroflexus, pre-emergence, 240 h; for pest or weed control at 125 g/ha: 125 g ai/ha, Preemergence, visual injury rating after approximately 10 d, read-out: Pigweed plant response rating (0 to 100 scale, 0 is no effect, 100 is complete control); for pest or weed control at 500 g/ha: 500 g ai/ha, preemergence, visual injury rating about 10 d after treatment, 0 to 100 scale (0 no effect, 100 complete control), read-out: Pigweed plant response rating
[6] = test system: barnyardgrass (Echinochloa crus-galli); experiment: Test A preemergence; conditions: Echinochloa crus-galli, pre-emergence, 240 h; for pest or weed control at 125 g/ha: 125 g ai/ha, Preemergence, visual injury rating after approximately 10 d, read-out: Barnyardgrass plant response rating (0 to 100 scale, 0 is no effect, 100 is complete control); for pest or weed control at 500 g/ha: 500 g ai/ha, preemergence, visual injury rating about 10 d after treatment, 0 to 100 scale (0 no effect, 100 complete control), read-out: Barnyardgrass plant response rating
Procedure, shortened: as §1

[7] = test system: sedge, umbrella (small-flower umbrella sedge, Cyperus difformis); experiment: Test B flooded paddy test; conditions: Cyperus difformis, Flood, 250 g ai/ha; scale of 0 to 100 where 0 is no effect and 100 is complete control; read-out: Sedge, Umbrella plant response rating
Procedure, shortened: (§2)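 Rating scale 0–100 (visual, vs untreated controls) after a 13–15 d greenhouse period; application to the flood layer, 3 cm above soil and maintained; plants at 2-leaf stage when treated.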

[8] = test system: barnyardgrass (Echinochloa crus-galli); experiment: Test B flooded paddy test; conditions: Echinochloa crus-galli, Flood, 250 g ai/ha; scale of 0 to 100 where 0 is no effect and 100 is complete control; read-out: Barnyardgrass plant response rating
Procedure, shortened: as §2

[9] = test system: ducksalad (Heteranthera limosa); experiment: Test B flooded paddy test; conditions: Heteranthera limosa, Flood, 250 g ai/ha; scale of 0 to 100 where 0 is no effect and 100 is complete control; read-out: Ducksalad plant response rating
Procedure, shortened: as §2

rice (Oryra sativa) = experiment: Test B flooded paddy test; conditions: Oryza sativa, Flood, 250 g ai/ha; scale of 0 to 100 where 0 is no effect and 100 is complete control; read-out: Rice plant response rating
Procedure, shortened: as §2

[10] = test system: giant foxtail (Setaria faberii); experiment: Test A postemergence; conditions: Setaria faberi, post-emergence, 240 h, 125 g ai/ha, Postemergence; visual injury after approximately 10 d; 0 to 100 scale where 0 is no effect and 100 is complete control; read-out: Plant response rating, Foxtail, Giant
Procedure, shortened: as §1

[11] = test system: ragweed (common ragweed, Ambrosia elatior); experiment: Test A postemergence; conditions: Ambrosia artemisiifolia, post-emergence, 240 h, 125 g ai/ha, Postemergence; visual injury after approximately 10 d; 0 to 100 scale where 0 is no effect and 100 is complete control; read-out: Plant response rating, Ragweed
Procedure, shortened: as §1

[12] = test system: wheat (Triticum aestivum); experiment: Test A postemergence; conditions: Triticum aestivum, post-emergence, 240 h, 125 g ai/ha, Postemergence; visual injury after approximately 10 d; 0 to 100 scale where 0 is no effect and 100 is complete control; read-out: Plant response rating, Wheat
Procedure, shortened: as §1

[13] = test system: ryegrass, Italian (Italian ryegrass, Lolium multiflorum); experiment: Test A postemergence; conditions: Lolium multiflorum, post-emergence, 240 h, 125 g ai/ha, Postemergence; visual injury after approximately 10 d; 0 to 100 scale where 0 is no effect and 100 is complete control; read-out: Plant response rating, Ryegrass, Italian
Procedure, shortened: as §1

[14] = test system: Galium (catchweed bedstraw, Galium aparine); experiment: Test A postemergence; conditions: Galium, post-emergence, 240 h, 125 g ai/ha, Postemergence; visual injury after approximately 10 d; 0 to 100 scale where 0 is no effect and 100 is complete control; read-out: Plant response rating, Galium
Procedure, shortened: as §1

Kochia (Kochia scoparia) [15] = experiment: Test A postemergence; conditions: Bassia scoparia, post-emergence, 240 h, 125 g ai/ha, Postemergence; visual injury after approximately 10 d; 0 to 100 scale where 0 is no effect and 100 is complete control; read-out: Plant response rating, Kochia
Procedure, shortened: as §1

[16] = test system: blackgrass (Alopecurus myosuroides); experiment: Test A postemergence; conditions: Alopecurus myosuroides, post-emergence, 240 h, 125 g ai/ha, Postemergence; visual injury after approximately 10 d; 0 to 100 scale where 0 is no effect and 100 is complete control; read-out: Plant response rating, Blackgrass
Procedure, shortened: as §1

[17] = test system: pigweed (Amaranthus retroflexus); experiment: Test A postemergence; conditions: Amaranthus retroflexus, post-emergence, 240 h, 125 g ai/ha, Postemergence; visual injury after approximately 10 d; 0 to 100 scale where 0 is no effect and 100 is complete control; read-out: Plant response rating, Pigweed
Procedure, shortened: as §1

[18] = test system: barnyardgrass (Echinochloa crus-galli); experiment: Test A postemergence; conditions: Echinochloa crus-galli, post-emergence, 240 h, 125 g ai/ha, Postemergence; visual injury after approximately 10 d; 0 to 100 scale where 0 is no effect and 100 is complete control; read-out: Plant response rating, Barnyardgrass
Procedure, shortened: as §1

corn (Zea mays) = experiment: Test A postemergence; conditions: Zea mays, post-emergence, 240 h, 125 g ai/ha, Postemergence; visual injury after approximately 10 d; 0 to 100 scale where 0 is no effect and 100 is complete control
Procedure, shortened: as §1

SMILES	pest or weed control at 125 g/ha [1] [%]	pest or weed control at 500 g/ha [1] [%]	pest or weed control at 125 g/ha [2] [%]	pest or weed control at 500 g/ha [2] [%]	pest or weed control at 125 g/ha [3] [%]	pest or weed control at 500 g/ha [3] [%]	pest or weed control at 125 g/ha (Kochia (Kochia scoparia) [4]) [%]	pest or weed control at 500 g/ha (Kochia (Kochia scoparia) [4]) [%]	pest or weed control at 125 g/ha [5] [%]	pest or weed control at 500 g/ha [5] [%]	pest or weed control at 125 g/ha [6] [%]	pest or weed control at 500 g/ha [6] [%]	pest or weed control at 250 g/ha [7] [%]	pest or weed control at 250 g/ha [8] [%]	pest or weed control at 250 g/ha [9] [%]	pest or weed control at 250 g/ha (rice (Oryra sativa)) [%]	pest or weed control at 125 g/ha [10] [%]	pest or weed control at 125 g/ha [11] [%]	plant injury at 125 g/ha [12] [%]	pest or weed control at 125 g/ha [13] [%]	other results
Cc1ccc(NC(=O)[C@H]2C(=O)N(C)C[C@@H]2c2cc(F)cc(F)c2)cc1 [Compound 967]	80	90	0	0	0	0	0	0	0	0	80	90	0	0	35	0	80	0	0	0	pest or weed control at 125 g/ha [14]: 0%; pest or weed control at 125 g/ha (Kochia (Kochia scoparia) [15]): 0%; pest or weed control at 125 g/ha [16]: 0%; pest or weed control at 125 g/ha [17]: 0%; pest or weed control at 125 g/ha [18]: 80%; Corn plant response rating (crop injury, 0 = no effect, 100 = complete kill) at 125 g/ha (corn (Zea mays)): 0%
O=C1NC[C@H](c2cc(C(F)(F)F)cs2)[C@H]1C(=O)Nc1cccc(F)c1F [Compound 961]	70	90	60	90	30	80	70	90	0	30	90	90	0	40	100	20	30	20	0	20	pest or weed control at 125 g/ha [14]: 30%; pest or weed control at 125 g/ha (Kochia (Kochia scoparia) [15]): 50%; pest or weed control at 125 g/ha [16]: 30%; pest or weed control at 125 g/ha [17]: 0%; pest or weed control at 125 g/ha [18]: 90%; Corn plant response rating (crop injury, 0 = no effect, 100 = complete kill) at 125 g/ha (corn (Zea mays)): 20%

Reference: patent US12077503B2, “Substituted cyclic amides and their use as herbicides” (FMC CORPORATION, priority 2015, dated 2024)
